These are literature values, as cited in PMC4460250, “Systems Pharmacology Dissecting Holistic Medicine for Treatment of Complex Diseases: An Example Using Cardiocerebrovascular Diseases Treated by TCM” (Evidence-based Complementary and Alternative Medicine : eCAM, 2015).

The conditions of the data set: in vivo; cited from earlier work.
Take `O=C(NCCN1CCOCC1)c1ccc(Cl)cc1` [Moclobemide]: the “HIA(Human Intestinal Absorption)” value is 0.88.
Take `CCOC(=O)Nc1ccc2c(c1)N(C(=O)CCN1CCOCC1)c1ccccc1S2` [Moricizine]: the “HIA(Human Intestinal Absorption)” value was 0.88.
For the compound `COc1nc(C)nc(Cl)c1N=C1NCCN1` [Moxonidine], the “HIA(Human Intestinal Absorption)” value is listed as 0.88.
On to `CC(C)(C)NCC(O)COc1cccc2c1CC(O)C(O)C2` (stereo not shown) [Nadolol], for which the “HIA(Human Intestinal Absorption)” value is 0.57.
In the case of `O=C1CC[C@@]2(O)[C@H]3Cc4ccc(O)c5c4[C@@]2(CCN3CC2CC2)[C@H]1O5` [Naltrexone], the “HIA(Human Intestinal Absorption)” value was 0.95.
For the compound `CCc1nn(CCCN2CCN(c3cccc(Cl)c3)CC2)c(=O)n1CCOc1ccccc1` [Nefazodone], the “HIA(Human Intestinal Absorption)” value was 1.
Regarding `CC#Cc1cn([C@@H]2O[C@H](CO)[C@@H](O)[C@@H]2O)c(=O)[nH]c1=O` [Netivudine], the “HIA(Human Intestinal Absorption)” value is on record as 0.28.
With `O=C(NCCO[N+](=O)[O-])c1cccnc1` [Nicorandil], the “HIA(Human Intestinal Absorption)” value is 1.
With `O=C(O)c1cccnc1` [Nicotinic_acid], the “HIA(Human Intestinal Absorption)” value is 0.88.
With `CC1(C)NC(=O)N(c2ccc([N+](=O)[O-])c(C(F)(F)F)c2)C1=O` [Nilutamide], the “HIA(Human Intestinal Absorption)” value was 1.
`O=C1CN(/N=C/c2ccc([N+](=O)[O-])o2)C(=O)N1` [Nitrofurantoin]: the “HIA(Human Intestinal Absorption)” value is reported as 0.95.
On to `CNC(=C[N+](=O)[O-])NCCSCc1csc(CN(C)C)n1` [Nizatidine], for which the “HIA(Human Intestinal Absorption)” value is on record as 0.9.
For the compound `CNCCC=C1c2ccccc2CCc2ccccc21` [Nortriptyline], the “HIA(Human Intestinal Absorption)” value is on record as 1.
With `O=C(O)c1cc(/N=N/c2ccc(O)c(C(=O)O)c2)ccc1O` [Olsalazine], the “HIA(Human Intestinal Absorption)” value was 0.24.
For `COc1ccc2[nH]c([S+]([O-])Cc3ncc(C)c(OC)c3C)nc2c1` (stereo not shown) [Omeprazole], the “HIA(Human Intestinal Absorption)” value is recorded as 0.8.
On to `O=C(O)CCc1nc(-c2ccccc2)c(-c2ccccc2)o1` [Oxaprozin], for which the “HIA(Human Intestinal Absorption)” value is recorded as 0.98.
Take `CN(C)[C@@H]1C(O)=C(C(N)=O)C(=O)[C@@]2(O)C(O)=C3C(=O)c4c(O)cccc4[C@@](C)(O)[C@H]3[C@H](O)[C@@H]12` [Oxytetracycline]: the “HIA(Human Intestinal Absorption)” value is 0.58.
Take `NCCC(O)(P(=O)(O)O)P(=O)(O)O` [Pamidronic_acid]: the “HIA(Human Intestinal Absorption)” value is listed as 0.05.
Consider `CC(=O)Nc1ccc(O)cc1` [Paracetamol], for which the “HIA(Human Intestinal Absorption)” value was 0.8.
`Fc1ccc([C@@H]2CCNC[C@H]2COc2ccc3c(c2)OCO3)cc1` [Paroxetine]: the “HIA(Human Intestinal Absorption)” value was 1.
On to `Cc1nc(=O)c(C#N)c(NCc2cccnc2)[nH]1` [Pelrinone], for which the “HIA(Human Intestinal Absorption)” value was 0.98.
For the compound `CCC[C@H](N[C@@H](C)C(=O)N1[C@H](C(=O)O)C[C@@H]2CCCC[C@@H]21)C(=O)OCC` [Perindopril], the “HIA(Human Intestinal Absorption)” value is listed as 0.95.
With `Nc1ccc(/N=N/c2ccccc2)c(N)n1` [Phenazopyridine], the “HIA(Human Intestinal Absorption)” value was 0.9.
Turning to `O=C1c2ccccc2C(=O)C1c1ccccc1` [Phenindione], the “HIA(Human Intestinal Absorption)” value is 1.
Turning to `CCC1(c2ccccc2)C(=O)NC(=O)NC1=O` [Phenobarbital], the “HIA(Human Intestinal Absorption)” value is 1.
Turning to `O=C1NC(=O)C(c2ccccc2)(c2ccccc2)N1` [Phenytoin], the “HIA(Human Intestinal Absorption)” value is 0.9.
As for `O=C(O)c1ccccc1C(=O)Nc1ccc(S(=O)(=O)Nc2nccs2)cc1` [Phthalylsulfathiazole], the “HIA(Human Intestinal Absorption)” value is on record as 0.05.
As for `NS(=O)(=O)c1cc(C(=O)O)cc(N2CCCC2)c1Oc1ccccc1` [Piretanide], the “HIA(Human Intestinal Absorption)” value is 0.85.
As for `CN1C(C(=O)Nc2ccccn2)=C(O)c2ccccc2S1(=O)=O` [Piroxicam], the “HIA(Human Intestinal Absorption)” value was 1.
For the compound `CN1CCC(=C2c3ccccc3CCc3sccc32)CC1` [Pizotyline], the “HIA(Human Intestinal Absorption)” value is listed as 0.8.
For `C[n+]1ccccc1/C=N/O` [Pralidoxime], the “HIA(Human Intestinal Absorption)” value is reported as 0.3.
